In assay [1] the target is T1, Protein farnesyltransferase (Homo sapiens, UniProt P49354+P49356). Kind of assay: Inhibition of human recombinant farnesyltransferase using farnesylpyrophosphate and dansyl-GCVLS as substrate at 100 uM measured for 15 mins by fluorescence assay. It counts as protein-complex assay.
The target of assay [2] is T1, Protein farnesyltransferase. Kind of assay: Inhibition of human recombinant farnesyltransferase using farnesylpyrophosphate and dansyl-GCVLS as substrate measured for 15 mins by fluorescence assay. The assay is classed as protein-complex assay.

Molecules are shown by their SMILES.

One may read the inhibition as how much of the control response was suppressed. What is called IC50 is the midpoint of a concentration-inhibition curve. On to `CCOC(=O)c1cc(C(=O)/C=C/c2ccc3c(c2)Sc2ccccc2N3C)n2ccc(OC)cc12`, for which the inhibition in assay [1] turned out to be 84%. The IC50 in assay [2] was found to be 711 nM.

With `COc1ccn2c(C(=O)/C=C/c3ccc(Cl)cc3)cc(C(=O)O)c2c1`, the inhibition in assay [1] is 88%. The IC50 in assay [2] came to 2330 nM.

For the molecule `CCOC(=O)c1cc(C(=O)/C=C/c2cc(OC)c(OC)c(OC)c2)n2c(C)cccc12`, the inhibition in assay [1] was 7%. In the case of `CCOC(=O)c1cc(C(=O)/C=C/c2ccc(C#N)cc2)n2ccc(OC)cc12`, in assay [1], the inhibition was determined as 95%. In addition, the IC50 in assay [2] was determined as 8740 nM. For `CCOC(=O)c1cc(C(=O)/C=C/c2ccc3c(c2)Sc2ccccc2N3C)n2ccc(C)cc12`, the inhibition in assay [1] was determined as 98%. Further, in assay [2], the concentration for half-maximal inhibition (IC50) came to 155 nM. The like results for `CCOC(=O)c1cc(C(=O)/C=C/c2ccc3c(c2)Sc2ccccc2N3C)n2ccccc12` were, in that order, 85% and 9 nM. The like results for `COc1cc(/C=C/C(=O)c2cc(C(=O)O)c3c(C)cc(C)cn23)cc(OC)c1OC` were, in that order, 88% and 15900 nM. Taken in the same sequence, the figures for `COc1cc(/C=C/C(=O)c2ccc3c(C)cc(C)cn23)cc(OC)c1OC` were 88% and 726 nM. Turning to `CCOC(=O)c1cc(C(=O)/C=C/c2cc(OC)c(OC)c(OC)c2)n2ccc(OC)cc12`, the inhibition in assay [1] is 76%. Also, the concentration for half-maximal inhibition (IC50) in assay [2] was 11600 nM.

On to `CCOC(=O)c1cc(C(=O)/C=C/c2ccc3c(c2)Sc2ccccc2N3C)n2c(C)cccc12`, for which the inhibition in assay [1] worked out at 91%. In addition, the IC50 in assay [2] stood at 23 nM. The like results for `CCOC(=O)c1cc(C(=O)/C=C/c2cc(OC)c(OC)c(OC)c2)n2ccccc12` were, in that order, 94% and 19300 nM. As to `CCOC(=O)c1cc(C(=O)/C=C/c2ccc(-c3ccccc3)cc2)n2ccc(OC)cc12`, the inhibition in assay [1] is 95%. In addition, the 50% inhibitory concentration (IC50) in assay [2] worked out at 1320 nM. Taken in the same sequence, the figures for `CCOC(=O)c1cc(C(=O)/C=C/c2ccc(Br)cc2)n2ccc(OC)cc12` were 100% and 602 nM. `CCOC(=O)c1cc(C(=O)/C=C/c2ccc(OC)cc2)n2ccc(OC)cc12`: in assay [1], the inhibition worked out at 68%.

`CSCC[C@H](NC(=O)c1ccc(NC[C@@H](N)CS)cc1-c1ccccc1)C(=O)O`: the inhibition in assay [1] was 100%. On to `CCOC(=O)c1cc(C(=O)/C=C/c2ccc(Cl)cc2)n2ccc(OC)cc12`, for which the inhibition in assay [1] turned out to be 85%. Besides, the IC50 in assay [2] was determined as 931 nM.

Source of the values: ChEMBL document CHEMBL3826975, “New indolizine-chalcones as potent inhibitors of human farnesyltransferase: Design, synthesis and biological evaluation” (Bioorg Med Chem Lett, 2016).
